From patent publication US20040086479A1, “Novel dendritic polymers, crosslinked gels, and their biomedical uses” (DUKE UNIVERSITY, priority 2001, published 2004)
In brackets after ≈: the same amount, converted by molar mass.

Assay: Water solubility
Format: physicochemical

SMILES | water solubility
CC[C@@]1(O)C(=O)OCc2c1cc1n(c2=O)Cc2cc3cc(O)ccc3nc2-1 [Example 10HCPT, 10-hydroxycamptothecin] | ~6 µM (≈ 2.19 µg/mL)
[O-]c1c(-c2ccccc2)cc(-[n+]2c(-c3ccccc3)cc(-c3ccccc3)cc2-c2ccccc2)cc1-c1ccccc1 [Reichardt's dye] | 10^−6 M
